How the values were obtained:
D(2) dopamine receptor = D(2) dopamine receptor (Homo sapiens, UniProt P14416); experiment: Binding affinity against cloned human Dopamine receptor D2 (long) using [125I]iodosulpiride as radioligand
D(4) dopamine receptor = biological target: T1, D(4) dopamine receptor (Homo sapiens, UniProt P21917); experiment: Binding affinity against cloned human Dopamine receptor D4 using [3H]nemonapride as radioligand
T1 sequence (P21917 whole entry): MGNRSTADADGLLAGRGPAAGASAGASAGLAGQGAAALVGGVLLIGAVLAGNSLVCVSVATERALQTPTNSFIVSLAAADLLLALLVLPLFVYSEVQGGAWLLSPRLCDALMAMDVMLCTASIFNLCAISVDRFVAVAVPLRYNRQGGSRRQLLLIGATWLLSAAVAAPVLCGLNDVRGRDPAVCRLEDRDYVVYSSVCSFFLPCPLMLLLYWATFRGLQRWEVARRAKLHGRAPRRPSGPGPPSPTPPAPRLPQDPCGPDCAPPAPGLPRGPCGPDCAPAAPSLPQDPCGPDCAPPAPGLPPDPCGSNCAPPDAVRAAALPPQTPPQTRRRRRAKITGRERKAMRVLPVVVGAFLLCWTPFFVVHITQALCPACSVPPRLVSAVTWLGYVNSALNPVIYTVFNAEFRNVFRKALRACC

[1] = biological target: Dopamine receptors; D2 & D4 (Homo sapiens) (UniProt P14416+P21917); experiment: Selectivity ratio for binding affinity between D4 and D2 receptor; assay type: protein assay
Chain of Dopamine receptors; D2 & D4 (Homo sapiens) (P14416 whole entry, looked up, one chain of several): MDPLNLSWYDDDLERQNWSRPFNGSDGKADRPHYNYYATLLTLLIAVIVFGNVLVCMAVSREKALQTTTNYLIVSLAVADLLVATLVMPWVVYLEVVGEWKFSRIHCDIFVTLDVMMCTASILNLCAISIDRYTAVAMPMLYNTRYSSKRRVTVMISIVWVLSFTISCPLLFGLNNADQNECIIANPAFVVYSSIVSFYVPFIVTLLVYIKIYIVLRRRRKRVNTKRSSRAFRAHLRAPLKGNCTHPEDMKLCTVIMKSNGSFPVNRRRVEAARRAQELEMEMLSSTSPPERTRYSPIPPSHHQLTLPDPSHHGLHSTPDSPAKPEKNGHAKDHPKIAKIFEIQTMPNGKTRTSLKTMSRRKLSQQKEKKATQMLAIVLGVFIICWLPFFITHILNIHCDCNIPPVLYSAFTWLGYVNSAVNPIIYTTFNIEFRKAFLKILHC

Chain of D(2) dopamine receptor (P14416 whole entry): as the sequence (P14416 whole entry, looked up, one chain of several) above

## O=C(OCC1CCN(Cc2ccccc2)CC1)c1ccc(Cl)cc1
D(2) dopamine receptor
  Ki: 2000 nM
D(4) dopamine receptor
  Ki: 25.1 nM
[1]
  Selectivity: 80

## COc1cc2ccccc2cc1C(=O)OCC1CCN(Cc2ccccc2)C1 (stereo not given)
D(2) dopamine receptor
  Ki: 10000 nM
D(4) dopamine receptor
  Ki: 20 nM
[1]
  Selectivity: 500

## COc1cc2ccccc2cc1C(=O)NC1CCN(Cc2ccccc2)C1 (stereo not given)
D(2) dopamine receptor
  Ki: 39.8 nM
D(4) dopamine receptor
  Ki: 3.98 nM
[1]
  Selectivity: 10

## COc1cc2ccccc2cc1C(=O)OCC1CCN(Cc2ccccc2)CC1
D(2) dopamine receptor
  Ki: 3160 nM
D(4) dopamine receptor
  Ki: 5.01 nM
[1]
  Selectivity: 630

## COc1cc2ccccc2cc1C(=O)CCC1CCN(Cc2ccccc2)CC1
D(2) dopamine receptor
  Ki: 398 nM
D(4) dopamine receptor
  Ki: 31.6 nM
[1]
  Selectivity: 12

## COc1cc2ccccc2cc1OCCC1CCN(Cc2ccccc2)CC1
D(2) dopamine receptor
  Ki: 1580 nM
D(4) dopamine receptor
  Ki: 25.1 nM
[1]
  Selectivity: 60

## COc1cc2ccccc2cc1CC(=O)CC1CCN(Cc2ccccc2)CC1
D(2) dopamine receptor
  Ki: 1260 nM
D(4) dopamine receptor
  Ki: 200 nM
[1]
  Selectivity: 6

## COc1cc2ccccc2cc1C(=O)NCC1CCN(Cc2ccccc2)CC1
D(2) dopamine receptor
  Ki: 126 nM
D(4) dopamine receptor
  Ki: 20 nM
[1]
  Selectivity: 6

## COc1cc2ccccc2cc1OC(=O)CC1CCN(Cc2ccccc2)CC1
D(2) dopamine receptor
  Ki: 7940 nM
D(4) dopamine receptor
  Ki: 6.31 nM
[1]
  Selectivity: 1260

## COc1cc2ccccc2cc1COCC1CCN(Cc2ccccc2)CC1
D(2) dopamine receptor
  Ki: 1000 nM
D(4) dopamine receptor
  Ki: 31.6 nM
[1]
  Selectivity: 30
